# Where two headings read alike, the source gives them in different places.
# Experiments:
# [1] = Predicted stability of mitomycin C at different temperatures (aqueous degradation kinetics)
# [2] = Solution stability of mitomycin C in non-aqueous solvents (Table V); assay type: physicochemical
# Description: ^a All solutions on test in amber vials and nitrogen purged.
# ^b The pH of these vehicles was adjusted to 7.0 with citric acid.
# ^c Dried over molecular sieve.
# [3] = Pseudo first-order rate constants for degradation of mitomycin C in neat propylene glycol; assay type: physicochemical
# Procedure: ^a Data were taken from Table VI. m:month.
# ^b Predicted from 40° C. data.
# [4] = Description: The effect of pretreatment of propylene glycol with sodium bicarbonate and carbon (Darco G-60) was investigated.
# [5] = cited from earlier work; for stable for: 20-40 mcg/mL, room temperature; for degradation product: aqueous
# [6] = neutral pH, unbuffered solution, Ref. 6; cited from earlier work
# [7] = Stability of mitomycin C (5 mg/mL) in polyethylene glycols; assay type: physicochemical
# [8] = Apparent pH of propylene glycol before and after sodium bicarbonate treatment; assay type: physicochemical; settings: after 1:10 dilution with water
# Procedure: Into a 50 mL Erlenmeyer flask containing 25 mL of neat propylene glycol was added 25 mg sodium bicarbonate. The mixture was stirred for 10 minutes. After standing for 30 minutes, the mixture was then filtered through a Millex-SR filter (Millipore Corp., P/N#SLSR025NS) to remove undissolved sodium bicarbonate. Apparent pH of propylene glycol before and after the treatment (after 1:10 dilution with water) was measured and were 6.5 and 8.4, respectively.
compound,measurement,setting,value
CO[C@@]12[C@H](COC(N)=O)C3=C(C(=O)C(C)=C(N)C3=O)N1C[C@@H]1N[C@@H]12 [mitomycin C],t50,"[1]; 5° C., predicted",7.6 y
same,t90,"[1]; 5° C., predicted",420 days
same,decomposition rate constant,"[1]; 5° C., predicted from E act",1.04e-05 h⁻¹
same,predicted t90,"[1]; 5° C., unbuffered aqueous solution",about one
same,t50,[1]; 25° C.,0.7 y
same,t90,[1]; 25° C.,40 days
same,decomposition rate constant,"[1]; 25° C., 0.05M phosphate buffer, pH 7.43",0.00011 h⁻¹
same,time until potency falls to 90% of its original value,"[1]; in water, 25° C.",40 days
same,Stability,[2]; 2-pyrrolidone (2-Pyr),Slightly lower stability
same,Stability,"[2]; DMA, NMP and PG",Excellent stability
same,Stability,[2]; ethanol,surprisingly poor
same,Effect of addition of 2% water on stability,"[2]; propylene glycol, vs neat solvent",appeared to increase stability
same,"Arrhenius activation energy, Ea",[3]; 4-40° C.,69 kJ/mol
same,time for which potency will remain greater than 90% of initial,[3]; 4° C.,more than 30 months
same,t90,[3]; 4 °C,38 months
same,10^2 ko (pseudo first-order rate constant),"[3]; 4 °C (277 K), m: month",0.276 m^-1
same,t90 predicted from 40° C. data,"[3]; 4 °C, m: month",39 m
same,t90,[3]; 25 °C,3.9 months
same,10^2 ko (pseudo first-order rate constant),"[3]; 25 °C (298 K), m: month",2.69 m^-1
same,t90,[3]; 40 °C,37 days
same,10^2 ko (pseudo first-order rate constant),"[3]; 40 °C (313 K), m: month",8.40 m^-1
same,Effect of air vs. nitrogen on stability,"[4]; PG and PG/water, 25° C.",more stable in the presence of nitrogen
same,Stability,"[4]; all PG formulations, 25° C. and 4° C.",Excellent stability
same,Stability,[4]; glycerin,poor stability
same,Effect of 5% and 10% water on stability,[4]; propylene glycol,"do not adversely affect, and may actually improve, mitomycin C stability"
same,Effect of pretreatment of propylene glycol with carbon (Darco G-60) on stability,[4]; propylene glycol,did not significantly improve mitomycin C stability
same,Effect of pretreatment of propylene glycol with sodium bicarbonate on stability,[4]; propylene glycol,significantly improved
same,Effect of three antioxidants on stability,"[4]; propylene glycol, vs control solution",do not significantly improve mitomycin C stability
same,stable for,[5]; 0.9% sodium chloride injection,12 h
same,stable for,[5]; 5% dextrose injection,3 h
same,pH of maximum stability,[5]; aqueous solutions,7-8
same,degradation product,[5]; pH above 7,hydrolyzed to 7-hydroxymitosane
same,degradation product,[5]; pH below 7,"converted to 1-hydroxy-2,7-diaminomitosanes"
same,time to loss of 10% potency,[5]; in water at 25° C.,about 40 days
same,stable for,[5]; sodium/lactate injection,24 h
same,E act (activation energy for decomposition),[6],81.2 kJ/mol
same,Stability,"[7]; PEG 200, 300 and 400",poor and variable stability
same,Effect of purging with nitrogen on stability,[7]; PEG 400,improved stability
same,Effect of pH adjustment to 6.2 on stability,"[7]; PEG 400, sodium glycodeoxycholate",unsuccessful
same,Effect of propyl gallate on stability,"[7]; PEG, nitrogen purged solutions",not to improve stability
CC(O)CO (stereo not drawn) [propylene glycol],Apparent pH after treatment,[8]; after sodium bicarbonate treatment,8.4
same,Apparent pH before treatment,[8]; before sodium bicarbonate treatment,6.5

# Source: US5216011A (priority 1989, dated 1993)
